Several values for one entry are separate records, joined by “and”; a condition that tells them apart may be missing. Identical values can stand only once. Like-named read-outs stand apart in the source and are kept apart here.
Columns and labels:
J82 cisR [1] = test: MTT cell viability assay; type: cell-based, human
Protocol: (§1) The cell viability for determination of IC50 values and synergism studies was analyzed by MTT assay as previously described. […] For preincubation experiments, 1600 c/w (cells per well) for J82 and 1200 c/w for J82 cisR were used. After the incubation time, 25 µL MTT (3-(4,5-dimethylthiazol-2-yl)-2,5-diphenyltetrazolium bromide, Serva, Heidelberg, Germany) solution (5 mg/mL in phosphate-buffered saline) was added. The formazan was dissolved in 75 µL DMSO, and the absorption was measured at 540 nm and 690 nm with a microplate reader (ThermoFisher Multiskan, Thermo Scientific, Wesel, Germany).

J82 [2] = test: MTT cell viability assay; type: cell-based, human
Protocol: as §1

J82 [3] = test: RT-qPCR gene expression; type: cell-based, human; settings: 48 h; ENT 0.316 µM; JQ1 1 µM; ENT + JQ1 0.316 + 1 µM
Source text: (§2) RNA was isolated using the RNeasy Mini Kit (Qiagen, Hilden, Germany). Subsequently, the RNA was transcribed into cDNA using the High-Capacity cDNA Reverse Transcription Kit (Thermo Scientific, Wesel, Germany). For an RT-PCR, GoTaq qPCR Master Mix (Promega, Fitchburg, WI, USA) and a CFX96 Real-Time System (BIO-RAD, Hercules, CA, USA) were used. The relative changes in gene expression were normalized to the control genes GUSB (beta-glucuronidase), TBP (TATA binding protein), and HPRT1 (hypoxanthine–guanine phosphoribosyltransferase) by Vandesompele method [54].

J82 cisR [4] = test: RT-qPCR gene expression; type: cell-based, human; settings: 48 h; ENT 0.316 µM; JQ1 0.1 µM; ENT + JQ1 0.316 + 0.1 µM
Source text: as §2

HEK293 = test: MTT cell viability assay, non-cancer cell line; type: cell-based, human
Protocol: as §1

HBLAK = test: MTT cell viability assay, non-cancer cell line; type: cell-based, human
Protocol: as §1

[5] = cited from earlier work
T24 LTT = test: MTT cell viability assay; type: cell-based, human
Protocol: as §1

T24 = test: MTT cell viability assay; type: cell-based, human
Protocol: as §1

[6] = Homo sapiens, 72 h, MTT, 72 h, compound alone, read-out: IC50 ± SD
[7] = Homo sapiens, J82, 72 h, MTT, 72 h, compound alone, read-out: IC50 ± SD
[8] = MTT, 72 h, compound alone, read-out: IC50 ± SD
[9] = read-out: Cisplatin IC50 ± SD, control, then cisplatin 72 h
[10] = 72 h co-incubation with 0.316 µM ENT
[11] = MTT, 72 h, compound alone, listed as cisplatin, read-out: IC50 ± SD
[12] = read-out: Cisplatin IC50 ± SD, control: untreated 48 h, then cisplatin 72 h
[13] = read-out: Cisplatin IC50 ± SD, control: untreated 48 h, then cisplatin 72 h, listed as cisplatin

Cc1sc2c(c1C)C(c1ccc(Cl)cc1)=NC(CC(=O)NCCCN1CCN(C)CC1)c1nnc(C)n1-2 (centres unmarked) [JQ35]
IC50 (J82 cisR [1]; [6]): 1.49 ± 0.34 µM
IC50 (J82 [2]; [7]): 69.5 ± 7.88 µM
fold-increased IC50 value compared to JQ1 (J82 [2]; J82, MTT, 72 h): 3.7 fold

Cc1sc2c(c1C)C(c1ccc(Cl)cc1)=NC(CC(=O)OC(C)(C)C)c1nnc(C)n1-2 (centres unmarked) [JQ1]
Bim gene expression, decadic logarithm of normalized expression (J82 [3]): 0.283
FOXO1 gene expression, decadic logarithm of normalized expression (J82 [3]): 0.260
FOXO3a gene expression, decadic logarithm of normalized expression (J82 [3]): 0.128
p21 gene expression, decadic logarithm of normalized expression (J82 [3]): 0.654
p53 gene expression, decadic logarithm of normalized expression (J82 [3]): -0.097
survivin gene expression, decadic logarithm of normalized expression (J82 [3]): -0.002
Bim gene expression, decadic logarithm of normalized expression (J82 cisR [4]): 0.534
FOXO1 gene expression, decadic logarithm of normalized expression (J82 cisR [4]): 0.410
FOXO3a gene expression, decadic logarithm of normalized expression (J82 cisR [4]): 0.438
p21 gene expression, decadic logarithm of normalized expression (J82 cisR [4]): 0.581
p53 gene expression, decadic logarithm of normalized expression (J82 cisR [4]): 0.347
survivin gene expression, decadic logarithm of normalized expression (J82 cisR [4]): 0.435
IC50 (HEK293; Homo sapiens, HEK293, MTT, 72 h, compound alone, read-out: IC50 ± SD): 1.41 ± 0.26 µM
reduction of cell viability (HEK293; entinostat and/or JQ1 in the absence of cisplatin (Figure 15b,c)): up to 20%
IC50 (HBLAK; Homo sapiens, 72 h, read-out: IC50 ± SD): 2.37 ± 0.41 µM
reduction of cell viability (HBLAK; entinostat and/or JQ1 in the absence of cisplatin (Figure 15a)): 60–65%
bioavailability ([5]; OTX015: oral, in contrast to JQ1): limited
half-life ([5]; in vivo, OTX015 in contrast to JQ1): very short
SF (J82 cisR [1]; 48 h preincubation with the other inhibitor (ENT after 0.1 µM JQ1; JQ1 after 0.316 µM ENT), then another 72 h): 1.21
SF (J82 cisR [1]; 72 h co-incubation with the other epigenetic inhibitor: ENT with 0.1 µM JQ1, JQ1 with 0.316 µM ENT): 1.71
IC50 (J82 cisR [1]; [6]): 2.64 ± 0.52 µM
IC50 (J82 cisR [1]; Homo sapiens, control of the 48 h preincubation scheme, compound 72 h, read-out: IC50 ± SD): 2.41 ± 0.51 µM
fold lower sensitivity of J82 than J82 cisR (J82 cisR [1]; MTT, 72 h): 8.4 fold
IC50 (J82 cisR [1]; [8]): 2.22 ± 0.41 µM
IC50 (T24 LTT; Homo sapiens, MTT, 72 h, compound alone, read-out: IC50 ± SD): 0.6 ± 0.08 µM
fold lower IC50 in T24 LTT than T24 (T24 LTT; MTT, 72 h): 4 fold
SF (J82 [2]; 48 h preincubation with the other inhibitor (ENT after 1 µM JQ1; JQ1 after 0.316 µM ENT), then another 72 h): 1.28
SF (J82 [2]; 72 h co-incubation with the other epigenetic inhibitor: ENT with 1 µM JQ1, JQ1 with 0.316 µM ENT): 0.84
IC50 (J82 [2]; [7]): 21.5 ± 4.05 µM
IC50 (J82 [2]; Homo sapiens, J82, control of the 48 h preincubation scheme, compound 72 h, read-out: IC50 ± SD): 21.6 ± 4.99 µM
IC50 (J82 [2]; [8]): 18.8 ± 1.55 µM
IC50 (T24; Homo sapiens, T-24, MTT, 72 h, compound alone, read-out: IC50 ± SD): 2.29 ± 0.42 µM

N.N.[Cl][Pt][Cl] [Cisplatin, cisplatin]
IC50 (HEK293; [8]): 3.36 ± 0.09 µM
IC50 (HEK293; [9]): 6.26 ± 0.21 µM
IC50 (HBLAK; [8]): 1.71 ± 0.09 µM
IC50 (HBLAK; [9]): 3.38 ± 0.18 µM
SF (J82 cisR [1]; 72 h co-incubation with 0.1 µM JQ1): 0.98
SF (J82 cisR [1]; [10]): 1.60
SF (J82 cisR [1]; 72 h co-incubation with 0.316 µM ENT + 0.1 µM JQ1): 1.56
cisplatin-resistance factor (J82 cisR [1]; J82 cisR vs J82): 3.8
IC50 (J82 cisR [1]; [11]): 6.17 ± 0.23 µM
IC50 (J82 cisR [1]; [8]): 7.16 ± 0.24 µM
IC50 (J82 cisR [1]; [12]): 8.49 µM and 7.8 µM
IC50 (J82 cisR [1]; [13]): 7.64 ± 0.38 µM
SF (T24 LTT; [10]): 1.71
SF (T24 LTT; 72 h co-incubation with 0.316 µM ENT + 0.075 µM JQ1): 1.55
IC50 (T24 LTT; [11]): 65.3 ± 4.17 µM
IC50 (T24 LTT; [8]): 72.2 ± 3.57 µM
cisplatin-resistance factor (T24 LTT; T24 LTT vs T24): 24
IC50 (T24 LTT; [12]): 75 ± 2.85 µM
IC50 (T24 LTT; [13]): 58.7 ± 2.6 µM
SF (J82 [2]; [10]): 1.74
SF (J82 [2]; 72 h co-incubation with 0.316 µM ENT + 1 µM JQ1): 3.05
SF (J82 [2]; 72 h co-incubation with 1 µM JQ1): 1.90
IC50 (J82 [2]; [11]): 2.49 ± 0.12 µM
IC50 (J82 [2]; [8]): 1.87 ± 0.06 µM
IC50 (J82 [2]; [12]): 2.16 µM and 3.02 µM
IC50 (J82 [2]; [13]): 2.98 ± 0.21 µM
SF (T24; 72 h co-incubation with 0.3 µM JQ1): 1.88
SF (T24; [10]): 1.02
SF (T24; 72 h co-incubation with 0.316 µM ENT + 0.3 µM JQ1): 1.54
IC50 (T24; [11]): 1.97 ± 0.06 µM
IC50 (T24; [8]): 2.99 ± 0.12 µM
IC50 (T24; [12]): 4.15 ± 0.12 µM
IC50 (T24; [13]): 3.23 ± 0.1 µM

Source: article PMC11476342 (Cancers, 2024)
